Assay results from paper PMC7311425, “DREAM-in-CDM Approach and Identification of a New Generation of Anti-inflammatory Drugs Targeting mPGES-1” (Scientific Reports, 2020).
Several values for one entry are separate records, joined by “and”; a condition that tells them apart may be missing. Equal entries are not always repeated. Entries after “also recorded” stand apart in the source; their conditions may differ. Where two headings read alike, the source gives them in different places.

Legend:
[1] = target: T1, human mPGES-1 (Homo sapiens, UniProt O14684); assay: in vitro inhibitory activity against human mPGES-1 (PGE2 ELISA assay); type: biochemical; details: for inhibition at 10 µM: read-out: Inhibition (%) at 10 µM; for IC50: human mPGES-1
T1 construct: made in house
T1 sequence (O14684 1-152): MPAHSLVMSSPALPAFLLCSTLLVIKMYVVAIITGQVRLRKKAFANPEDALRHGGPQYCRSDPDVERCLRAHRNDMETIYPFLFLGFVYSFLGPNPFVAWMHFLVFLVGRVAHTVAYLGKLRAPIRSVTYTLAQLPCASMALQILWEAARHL
Description: The above computational predictions were followed by in vitro activity assays for their actual inhibitory activity against human mPGES-1 using an ELISA assay described in our previous reports[32]–[34]. […] Specifically, 15 FDA-approved drugs (see Fig. S1 of the Supporting Information for the molecular structures) were assayed for their inhibitory activity against human mPGES-1.
(§1) The protocol for the protein preparation and in vitro activity assays were the same as described previously[51]–[54]. The enzyme activity assays were performed on ice in 1.5 ml microfuge tubes by using the expressed human or mouse mPGES-1. The reaction mixture contained: 0.2 M Na2HPO4/NaH2PO4, pH 7.2, 10 µL; 0.1 M GSH, 2.5 µL; diluted microsomal enzyme (80 µg/mL), 1 µL; PGH2 (0.31 mM in DMF), 5 µL; 1 µL inhibitor; and H2O in a final reaction volume of 100 µL. PGH2 was stored in dry ice and used to initiate the reaction. Compounds were incubated with the enzyme for 15 min at room temperature before the addition of cold PGH2 ([…]) to initiate the enzyme reaction. After 30 s, 10 µL of SnCl2 (40 mg/mL) in ethanol was added to stop the reaction. The non-enzymatic conversion of PGH2 to PGE2 was performed in the same buffer devoid of enzyme. The reaction mixture was placed on ice until PGE2 production was determined by the PGE2 enzyme immunoassay as described earlier. IC50 values of the inhibitors were calculated by using the GraphPad Prism 7.

[2] = tested on: mixed COX-1 and COX-2 (COX-1/2); assay: COX (ovine/human) inhibitor screening assay, mixed COX-1 and COX-2; type: biochemical; details: 100 µM; equal amounts of COX-1 and COX-2
Text: We used a mixture of equal amounts of purified COX-1 and COX-2 proteins and followed the protocol recommended by the vendor.

[3] = cited from earlier work
[4] = target: T1, human mPGES-1; assay: mPGES-1 enzyme activity at various GSH concentrations, Lineweaver-Burk plots; type: biochemical
Description: as §1

[5] = predicted Cmax in human organs from rat organ/plasma ratios; type: in vivo; details: 50 mg, from rat organ/plasma ratios [56]
Text: In addition, the reported ratios of Cmax values in various organs of rat to Cmax in rat plasma, along with the Cmax values in human plasma, were used to predict the Cmax values in the corresponding organs of human corresponding to the Cmax values in human plasma.

[6] = human, read-out: Cmax (µM) in plasma, cited from earlier work
[7] = tested on: air-pouch PGE2 level; assay: mouse air-pouch model of inflammation (carrageenan), air-pouch PGE2 by ELISA; type: in vivo
Description: The air-pouch fluid collected from mice were analyzed by ELISA assay for the PGE2 concentrations. GraphPad Prism 7 software (GraphPad Software, La Jolla, CA) was used to perform the one-way analysis of variance (ANOVA) with post hoc tests.
All the animal experiments were conducted in our animal laboratories in the University of Kentucky’s Division of Laboratory Animal Resources (DLAR) facility (PHS assurance number A3336-01; USDA number 61-R-0002; AAALAC, Intl. Unit # 13) following the guidelines and regulations of the AAALAC and National Institutes of Health (NIH). The animal procedure used in this project was approved by the University of Kentucky’s Institutional Animal Care and Use Committee (IACUC). The air-pouch model of inflammation[23],[55] is widely used for determining the in vivo effectiveness of inhibitors of prostaglandin synthesis. Air pouches were produced by duplicate injections of 3 mL of sterile air under the skin on the back of mice. […] The air-pouch fluid samples were analyzed for PGE2 by the same ELISA method used in the in vitro enzyme activity assay mentioned above.
GraphPad Prism 7 software (GraphPad Software, La Jolla, CA) was used to perform the one-way analysis of variance (ANOVA) with post hoc testing, allowing us to examine the significance of the difference in the in vivo activity data between each pair of dose conditions. p < 0.05 was considered statistically significant.

[8] = mouse, in vivo; cited from earlier work

COc1cc(C)c(/C=C/C(C)=C/C=C/C(C)=C/C(=O)O)c(C)c1C [Acitretin]
inhibition at 10 µM ([1]; 10 µM, single concentration): 83%
IC50 [1]: 3.5 ± 1.6 µM

CC(C)(C)C(=O)OCOP(=O)(COCCn1cnc2c(N)ncnc21)OCOC(=O)C(C)(C)C [Adefovir Dipivoxil]
inhibition at 10 µM ([1]; 10 µM, single concentration): 19%

COc1cc2nc(N(C)CCCNC(=O)C3CCCO3)nc(N)c2cc1OC (stereo not drawn) [Alfuzosin]
inhibition at 10 µM ([1]; 10 µM, single concentration): 22%

CCCCC[C@H](O)/C=C/[C@H]1[C@H](O)CC(=O)[C@@H]1CCCCCCC(=O)O [Alprostadil]
inhibition at 10 µM ([1]; 10 µM, single concentration): 11%

C=C1/C(=C\C=C2/CCC[C@]3(C)[C@@H]([C@H](C)/C=C/[C@@H](O)C4CC4)CC[C@@H]23)C[C@@H](O)C[C@@H]1O [Calcipotriene]
inhibition at 10 µM ([1]; 10 µM, single concentration): 68%
IC50 [1]: 3 ± 1.1 µM

COCC1=C(C(=O)O)N2C(=O)[C@@H](NC(=O)/C(=N\OC)c3csc(N)n3)[C@H]2SC1 [Cefpodoxime]
inhibition at 10 µM ([1]; 10 µM, single concentration): 47%
IC50 [1]: 29.7 ± 6.3 µM

CCCCC[C@H](O)/C=C/[C@H]1[C@H](O)CC(=O)[C@@H]1C/C=C\CCCC(=O)O [Dinoprostone]
inhibition at 10 µM ([1]; 10 µM, single concentration): 4%

OCCN(CCO)c1nc(N2CCCCC2)c2nc(N(CCO)CCO)nc(N3CCCCC3)c2n1 [Dipyridamole]
inhibition at 10 µM ([1]; 10 µM, single concentration): 36%

COc1cc2nc(N3CCN(C(=O)C4COc5ccccc5O4)CC3)nc(N)c2cc1OC (stereo not drawn) [Doxazosin]
inhibition at 10 µM ([1]; 10 µM, single concentration): 21%

C[C@]12CC[C@@H]3c4ccc(OC(=O)N(CCCl)CCCl)cc4CC[C@H]3[C@@H]1CC[C@@H]2OP(=O)(O)O [Estramustine Phosphate]
inhibition at 10 µM [1]: 36%

CS(=O)(=O)CCNCc1ccc(-c2ccc3ncnc(Nc4ccc(OCc5cccc(F)c5)c(Cl)c4)c3c2)o1 [Lapatinib]
inhibition of COX-1/2 [2]: did not significantly inhibit
dose-limiting toxicity (DLT) ([3]; Phase I dose-escalation, up to 7000 mg per day in twice-daily dosing): no dose-limiting toxicity
adverse effects in phase I clinical trials ([3]; non-cancer patients): did not cause any serious adverse effects
effect on Vmax ([4]; 1 µM lapatinib): did not significantly change
mode of inhibition with respect to GSH ([4]; 1 µM lapatinib, GSH at different concentrations): competes with co-factor GSH; also recorded: GSH-competitive inhibitor
y-intercept of Lineweaver-Burk plot (1/Vmax) ([4]; in the presence of 1 µM lapatinib (0.15 ± 0.02 in the absence)): 0.18 ± 0.02
Cmax ([5]; read-out: Predicted Cmax (µM) Kidney): ~1.3 µM
Cmax ([5]; read-out: Predicted Cmax (µM) Lung): ~2 µM
inhibition at 10 µM ([1]; 10 µM, single concentration): 99%
IC50 [1]: 0.8 µM and ~0.8 µM
Cmax ([6]; 10 mg, GW572016 ditosylate monohydrate oral suspension, ref Bence et al.[38]): 0.019 µM
Cmax ([6]; 25 mg, GW572016 ditosylate monohydrate oral suspension, ref Bence et al.[38]): 0.04 µM
Cmax ([6]; 50 mg, GW572016 ditosylate monohydrate oral suspension, ref Bence et al.[38]): 0.124 µM
Cmax ([6]; 100 mg, GW572016 ditosylate monohydrate oral suspension, ref Bence et al.[38]): 0.213 µM
Cmax ([6]; 175 mg, GW572016 ditosylate monohydrate oral suspension, ref Bence et al.[38]): 0.38 µM
Cmax ([6]; 250 mg, GW572016 ditosylate monohydrate oral suspension, ref Bence et al.[38]): 0.546 µM
Cmax ([6]; 500 mg, 100-mg and 250-mg tablets, daily oral, ref clinical trial EGF10004): 1.76 µM
Cmax ([6]; 650 mg, 100-mg and 250-mg tablets, daily oral, ref clinical trial EGF10004): 2.24 µM
Cmax ([6]; 900 mg, 100-mg and 250-mg tablets, daily oral, ref clinical trial EGF10004): 2.93 µM
Cmax ([6]; 1000 mg, 100-mg and 250-mg tablets, daily oral, ref clinical trial EGF10004): 3.18 µM
Cmax ([6]; 1250 mg orally once daily, ref clinical trial NCT00477464): 6.06 µM
Cmax ([6]; 1500 mg, 6 pills at 250 mg once oral daily, average of 36 data points from 6 subgroups, ref clinical trial NCT00486954 and NCT01138046): 8.6 µM
effect on air-pouch PGE2 level ([7]; carrageenan-treated mice, PO, 24 hours): significantly and dose-dependently decreased
effectiveness in comparison with celecoxib 50 mg/kg (PO) ([7]; lapatinib 50 mg/kg PO): less effective
difference in in vivo potency versus 50 mg/kg celecoxib (PO) ([7]; lapatinib 100 mg/kg PO): no significant difference

CC1(C)S[C@@H]2[C@H](NC(=O)COc3ccccc3)C(=O)N2[C@H]1C(=O)O [Penicillin V Potassium]
inhibition at 10 µM ([1]; 10 µM, single concentration): 36%

C[C@]12C=CC(=O)C=C1CC[C@@H]1[C@@H]2[C@@H](O)C[C@@]2(C)[C@H]1CC[C@]2(O)C(=O)CO [Prednisolone]
inhibition at 10 µM ([1]; 10 µM, single concentration): 44%

Cc1ccccc1C(=O)Nc1ccc(C(=O)N2CCCC(O)c3cc(Cl)ccc32)c(C)c1 (stereo not drawn) [Tolvaptan]
inhibition at 10 µM ([1]; 10 µM, single concentration): 52%
IC50 [1]: 10.2 ± 2.5 µM

CCOC(=O)[C@H](CCc1ccccc1)N[C@@H](C)C(=O)N1[C@H](C(=O)O)C[C@H]2CCCC[C@@H]21 [Trandolapril]
inhibition at 10 µM ([1]; 10 µM, single concentration): 54%
IC50 [1]: 9 ± 2.3 µM

Cc1ccc(-c2cc(C(F)(F)F)nn2-c2ccc(S(N)(=O)=O)cc2)cc1 [celecoxib]
toxicity in mice [8]: significant toxicity
